Our source for the IC50 values is patent publication US20150175599A1, “FAAH Inhibitors” (Ironwood Pharmaceuticals, Inc., priority 2010, published 2015).

This assay deals with T1, human cannabinoid receptor, CB1 (Homo sapiens, UniProt P21554).
T1 construct: (cDNA clone) CNR01L000; membranes prepared from it
Briefly: Human CB1 cannabinoid receptor radioligand binding assay ([3H]-CP 55,940). The conditions noted are these: Table 4. An excerpt: cDNA expression clones for human CB1 (hCB 1, Genbank Accession No. AY225225) expressed in vector pcDNA3.1+ were purchased from UMR cDNA Resource Center, Rolla, Mo. (Clone ID CNR01L000 for hCB 1).
Stable, HEK-293-derived cell lines that recombinantly express hCB 1 were established. In brief, the clone hCB 1 (CNR1L) was transfected into human embryonic kidney cells (HEK-293) using Lipofectamine 2000 (Gibco, Cat#11668-019) according to the manufacturer's protocol. Transfected clones were isolated by single colony purification and clones were screened for receptor expression using a whole cell, ^3H-CP 55,940 radioligand binding assay. HEK-293 stable cells were maintained in Dulbecco's modified Eagles medium (DMEM) containing 10% fetal bovine serum, 2 mM L-glutamine and 0.5 mg/mL G-418.
Membranes were isolated from transfected cells as follows. Monolayers of cultured cells were washed twice with phosphate-buffered saline (PBS). […] Protein concentration of membrane suspensions were measured by Bradford Protein Assay using bovine serum albumin as the standard (BioRad catalog #500-0006). […]
Radioligand binding assays were performed by incubating membranes (2-10 ug protein) prepared from HEK-293 cells expressing recombinant human cannabinoid receptor, CB1, at room temperature with 0.5 nM cannabinoid receptor agonist, [^3H]-CP 55,940 (Perkin Elmer, catalog #NET1051) in 0.2 mL of binding buffer (50 mM Tris-HCl, pH 7.5, 5 mM MgCl2, 2.5 mM EDTA) and 0.1% fatty acid free bovine serum albumin (Sigma Cat. #A0821) for 90 minutes. […] The radioactivity bound to the filters was counted with 0.05 mL of liquid scintillant (UltraGold MV, PerkinElmer catalog #6013159) in a scintillation counter (Perkin Elmer Microbeta instrument). Nonspecific binding was determined in the presence of unlabeled 1 uM CP 55,940 (Sigma Aldrich, catalog #C1112). Binding data were analyzed using GraphPad Prism (GraphPad Software, Inc. San Diego, Calif.).

Where only a bound is given, the exact number is not on record here.

T1 sequence (P21554 whole entry): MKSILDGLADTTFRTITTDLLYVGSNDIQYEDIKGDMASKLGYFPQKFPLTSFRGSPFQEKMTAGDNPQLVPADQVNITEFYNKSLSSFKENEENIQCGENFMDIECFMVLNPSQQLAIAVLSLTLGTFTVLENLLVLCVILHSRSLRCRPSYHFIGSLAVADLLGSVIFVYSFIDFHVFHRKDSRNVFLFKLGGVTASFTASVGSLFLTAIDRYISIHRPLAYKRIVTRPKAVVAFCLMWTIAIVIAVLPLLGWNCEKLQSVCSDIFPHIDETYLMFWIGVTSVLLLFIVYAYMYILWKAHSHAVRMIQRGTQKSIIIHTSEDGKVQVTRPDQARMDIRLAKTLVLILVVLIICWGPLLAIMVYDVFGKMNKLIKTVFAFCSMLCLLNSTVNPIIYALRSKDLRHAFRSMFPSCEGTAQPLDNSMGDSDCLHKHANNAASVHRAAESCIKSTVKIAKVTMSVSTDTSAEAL

For the compound `COc1ccc2c(c1)c(C(=O)C(=O)Nc1ccnc(OC)c1)c(C)n2Cc1ncc(Cl)cc1OC` [Compound 100, 2-(1-((5-chloro-3-methoxypyridin-2-yl)methyl)-5-methoxy-2-methyl-1H-indol-3-yl)-N-(2-methoxypyridin-4-yl)-2-oxoacetamide], the IC50 is > 10 µM. Take `COc1cc(NC(=O)C(=O)c2c(C)n(Cc3ncc(Cl)cc3F)c3cc(F)c(OC)cc23)ccn1` [Compound 99, 2-(1-((5-chloro-3-fluoropyridin-2-yl)methyl)-6-fluoro-5-methoxy-2-methyl-1H-indol-3-yl)-N-(2-methoxypyridin-4-yl)-2-oxoacetamide]: the IC50 was 1 to 10 µM. `COc1cc(NC(=O)C(=O)c2c(C)n(Cc3ncc(F)cc3F)c3cc(F)c(OC)cc23)ccn1` [Compound 101, 2-(1-((3,5-difluoropyridin-2-yl)methyl)-6-fluoro-5-methoxy-2-methyl-1H-indol-3-yl)-N-(2-methoxypyridin-4-yl)-2-oxoacetamide] yielded an IC50 of 1 to 10 µM.

A word on the IC50: it is the concentration needed to halve the response being measured.
